Measured values as given in patent US4932871A, “Rapid method for preparing chromogenic alpha-amylase substrate compounds at high preparative yields” (Miles Inc., priority 1987, dated 1990).
“And” between values parts separate entries of the source, which are not always exact repeats. Identical values can stand only once.

Columns and labels:
[1] = Solubility in phosphate buffered solution; type: physicochemical; details: phosphate buffered solution (pH 7.4)
Excerpt: The resulting glucoside has an absorbance (λmax) of 438 nm (yellow), an extinction coefficient of 27,400, and is soluble in a phosphate buffered solution (pH 7.4). […] Accordingly, such compound provides a very advantageous substrate for a secondary enzyme, such as β-D-glucosidase, in an assay system for α-amylase.

[2] = system: β-D-glucosidase; test: Hydrolysis of the glucoside substrate by β-D-glucosidase (Kcat, Km); type: biochemical; details: 50 mM phosphate buffered solution (pH 7.4) containing 5.0 mM MgCl2
[3] = system: α-amylase; test: Liquid analytical test system for the detection of α-amylase (DMA-G7, α-glucosidase, β-glucosidase); type: biochemical; details: average of three consecutive readings between 3 and 6 minutes
Experimental: A liquid α-amylase detection reagent was prepared by combining 1.8 mM DMA-G7 prepared according to Example 2, 38 units of α-glucosidase and 20 units of β-glucosidase in 1.0 mL of buffered solution comprising 50 mM PIPES, 50 mM NaCl, and 5.0 mM calcium chloride (pH 7.0). Amylase control serum (0.025 mL) containing 37 IU/L, 175 IU/L, and 313 IU/L, respectively, of α-amylase were added to the detection reagent, independently, and incubated at 37° C. The enzymatic action of α-amylase on the substrate compound in each of the mixtures liberated the shorter chain chromogenic maltooligosaccharide compounds thereof (e.g., DMA-G2 to DMA-G4) which, in turn, were enzymatically acted upon by the α-glucosidase and β-glucosidaseto liberate the optically active form or anion of the 7-hydroxy-9,9-dimethyl- 9H-acridin-2-one chromogen. The rate of color change produced by the liberated chromogen in each of the mixtures was measured at 634 nm on a Cary 219 spectrophotometer (Varian Associates, Inc., Sonnyvale, Calif., USA) from between 1 and 9 minutes after each of the serum samples were added to the detection reagent (Table 2/FIG. 4).

[4] = system: α-amylase; test: Analytical test device for the detection of α-amylase (filter paper impregnated with DMA-G7 reagent); type: biochemical; details: between 180 and 200 seconds, three aliquots
Experimental: A sheet of Whatman 54 filter paper (Whatman, Inc., Clifton, N.J., USA) was immersed into a solution comprising the liquid α-amylase detection reagent prepared according to Example 3, 0.1% Triton X-100 (Sigma Chemical Co., St. Louis, Mo., USA) and 0.5% carboxycellulose, and dried.
Analytical test devices were prepared by mounting 0.5 cm wide ×1.0 cm long segment of the aforementioned impregnated filter paper onto and along the edge of one surface of 0.5 cm×8.125 cm polystyrene supports (Tricite®, Dow Chemical Co., Midland, Mich., USA) previously laminated with a 2 mm strip of Double Stick® double-faced adhesive tape (3M Company, St. Paul, Minn., USA).
Three 30 μL aliquots of undiluted serum containing 39 IU/L, 78 IU/L, 117 IU/L, 157 IU/L, 235 IU/L, and 313 IU/L, respectively, of α-amylase were applied, independently, to a test device and the rate of color change produced by the liberated chromogen on each device was measured at 630 nm on a Seralyzer® reflectance photometer (Miles Inc., Elkhart, Ind., USA) from between 0 seconds and 240 seconds after the serum sample was added to each test device.

| Compound | solubility [1] | rate at which the enzyme cleaves the substrate (Kcat) [2] | Km ([2]; read-out: binding constant (Km)) | α-amylase reactivity, rate of color change at 634 nm ([3]; 37 IU/L α-amylase) | α-amylase reactivity, rate of color change at 634 nm ([3]; 175 IU/L α-amylase) | α-amylase reactivity, rate of color change at 634 nm ([3]; 313 IU/L α-amylase) | Reactivity (linear regression of L(R), reflectance at 630 nm) ([4]; 39 IU/L α-amylase in undiluted serum) | Reactivity (linear regression of L(R), reflectance at 630 nm) ([4]; 78 IU/L α-amylase in undiluted serum) | Reactivity (linear regression of L(R), reflectance at 630 nm) ([4]; 117 IU/L α-amylase in undiluted serum) | Reactivity (linear regression of L(R), reflectance at 630 nm) ([4]; 157 IU/L α-amylase in undiluted serum) | Reactivity (linear regression of L(R), reflectance at 630 nm) ([4]; 235 IU/L α-amylase in undiluted serum) | Reactivity (linear regression of L(R), reflectance at 630 nm) ([4]; 313 IU/L α-amylase in undiluted serum) |
| --- | --- | --- | --- | --- | --- | --- | --- | --- | --- | --- | --- | --- |
| CC1(C)C2=CC(=O)C=CC2=Nc2ccc(O[C@@H]3O[C@H](CO)[C@@H](O)[C@H](O)[C@H]3O)cc21 [DMA-G1, 7-β-D-glucopyranosyloxy-9,9-dimethyl-9H-acridin-2-one] | soluble | 1.32×10^4 mol min.^-1 /mol. active site | 170 µM | – | – | – | – | – | – | – | – | – |
| CC1(C)C2=CC(=O)C=CC2=Nc2ccc(O[C@@H]3O[C@H](CO)[C@@H](O[C@H]4O[C@H](CO)[C@@H](O[C@H]5O[C@H](CO)[C@@H](O[C@H]6O[C@H](CO)[C@@H](O[C@H]7O[C@H](CO)[C@@H](O[C@H]8O[C@H](CO)[C@@H](O[C@H]9O[C@H](CO)[C@@H](O)[C@H](O)[C@H]9O)[C@H](O)[C@H]8O)[C@H](O)[C@H]7O)[C@H](O)[C@H]6O)[C@H](O)[C@H]5O)[C@H](O)[C@H]4O)[C@H](O)[C@H]3O)cc21 [DMA-G7, 7-β-maltoheptaosyloxy-9,9-dimethyl-acridin-2-one] | – | – | – | 0.011 Absorbance/Minute | 0.062 Absorbance/Minute | 0.109 Absorbance/Minute | 0.384 × 10^-2 and 0.373 × 10^-2 and 0.359 × 10^-2 | 0.957 × 10^-2 and 0.941 × 10^-2 and 0.954 × 10^-2 | 1.450 × 10^-2 and 1.510 × 10^-2 and 1.430 × 10^-2 | 1.781 × 10^-2 and 1.999 × 10^-2 and 1.886 × 10^-2 | 2.560 × 10^-2 and 2.596 × 10^-2 and 2.610 × 10^-2 | 2.961 × 10^-2 and 2.989 × 10^-2 and 2.916 × 10^-2 |
| CC1(C)C2=CC(=O)C=CC2=Nc2ccc(O)cc21 [liberated chromogen anion, 7-hydroxy-9,9-dimethyl-9H-acridin-2-one] | soluble | – | – | – | – | – | – | – | – | – | – | – |
